Assay results published in PubChem BioAssay (NCI).
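96-well plates; 48 h exposure; 5 concentrations. Endpoints by linear interpolation between flanking doses. Not reached: highest tested concentration assigned. TGI: total growth inhibition.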

How the values were obtained:
Experiment in all cases: NCI anticancer screen, dose series, 48 h
SF-268 CNS = system: SF-268 CNS
NCI/ADR-RES ovarian = system: NCI/ADR-RES ovarian
BT-549 breast = system: BT-549 breast
HS 578T breast = system: HS 578T breast
HL-60(TB) leukemia = system: HL-60(TB) leukemia
MDA-N = system: MDA-N
786-0 renal = system: 786-0 renal
EKVX NSCLC = system: EKVX NSCLC
RPMI-8226 leukemia = system: RPMI-8226 leukemia
LOX IMVI melanoma = system: LOX IMVI melanoma
HOP-92 NSCLC = system: HOP-92 NSCLC
COLO 205 colon = system: COLO 205 colon
U251 CNS = system: U251 CNS
MOLT-4 leukemia = system: MOLT-4 leukemia
MDA-MB-435 = system: MDA-MB-435
M14 melanoma = system: M14 melanoma
OVCAR-4 ovarian = system: OVCAR-4 ovarian
NCI-H226 lung = system: NCI-H226 lung
OVCAR-8 ovarian = system: OVCAR-8 ovarian
RXF 393 renal = system: RXF 393 renal
T-47D breast = system: T-47D breast
SNB-19 CNS = system: SNB-19 CNS
SNB-75 CNS = system: SNB-75 CNS
PC-3 prostate = system: PC-3 prostate
UACC-62 melanoma = system: UACC-62 melanoma
CCRF-CEM leukemia = system: CCRF-CEM leukemia
K-562 leukemia = system: K-562 leukemia
TK-10 renal = system: TK-10 renal
CAKI-1 renal = system: CAKI-1 renal
NCI-H522 lung = system: NCI-H522 lung
NCI-H23 lung = system: NCI-H23 lung
SK-OV-3 ovarian = system: SK-OV-3 ovarian
A498 renal = system: A498 renal
HT29 colon = system: HT29 colon
UACC-257 melanoma = system: UACC-257 melanoma
NCI-H460 lung = system: NCI-H460 lung
ACHN renal = system: ACHN renal
OVCAR-5 ovarian = system: OVCAR-5 ovarian
HCT-116 colon = system: HCT-116 colon
SN12C renal = system: SN12C renal
SR leukemia = system: SR leukemia
SW-620 colon = system: SW-620 colon
MALME-3M melanoma = system: MALME-3M melanoma
KM12 colon = system: KM12 colon
SK-MEL-28 melanoma = system: SK-MEL-28 melanoma
A549 NSCLC = system: A549 NSCLC
HCT-15 colon = system: HCT-15 colon
SK-MEL-2 melanoma = system: SK-MEL-2 melanoma
MDA-MB-231 breast = system: MDA-MB-231 breast
DU-145 prostate = system: DU-145 prostate
HOP-62 NSCLC = system: HOP-62 NSCLC
MCF7 breast = system: MCF7 breast
IGROV1 ovarian = system: IGROV1 ovarian
SF-539 CNS = system: SF-539 CNS
SK-MEL-5 melanoma = system: SK-MEL-5 melanoma
OVCAR-3 ovarian = system: OVCAR-3 ovarian
SF-295 CNS = system: SF-295 CNS
UO-31 renal = system: UO-31 renal

Measured: TGI

CN(C)CCNS(=O)(=O)N(C)C
> 100 µM: SF-268 CNS | NCI/ADR-RES ovarian | BT-549 breast | HS 578T breast | HL-60(TB) leukemia | MDA-N | 786-0 renal | EKVX NSCLC | RPMI-8226 leukemia | LOX IMVI melanoma | HOP-92 NSCLC | COLO 205 colon | U251 CNS | MOLT-4 leukemia | MDA-MB-435 | M14 melanoma | OVCAR-4 ovarian | NCI-H226 lung | OVCAR-8 ovarian | RXF 393 renal | T-47D breast | SNB-19 CNS | SNB-75 CNS | PC-3 prostate | UACC-62 melanoma | CCRF-CEM leukemia | K-562 leukemia | TK-10 renal | CAKI-1 renal | NCI-H522 lung | NCI-H23 lung | SK-OV-3 ovarian | A498 renal | HT29 colon | UACC-257 melanoma | NCI-H460 lung | ACHN renal | OVCAR-5 ovarian | HCT-116 colon | SN12C renal | SR leukemia | SW-620 colon | MALME-3M melanoma | KM12 colon | SK-MEL-28 melanoma | A549 NSCLC | HCT-15 colon | SK-MEL-2 melanoma | MDA-MB-231 breast | DU-145 prostate | HOP-62 NSCLC | MCF7 breast | IGROV1 ovarian | SF-539 CNS | SK-MEL-5 melanoma | OVCAR-3 ovarian | SF-295 CNS

CC(C)NC1(C(N)=O)CCN(Cc2ccccc2)CC1
> 100 µM: SF-268 CNS | NCI/ADR-RES ovarian | BT-549 breast | HS 578T breast | HL-60(TB) leukemia | MDA-N | 786-0 renal | EKVX NSCLC | RPMI-8226 leukemia | LOX IMVI melanoma | HOP-92 NSCLC | COLO 205 colon | U251 CNS | MOLT-4 leukemia | MDA-MB-435 | M14 melanoma | OVCAR-4 ovarian | NCI-H226 lung | OVCAR-8 ovarian | RXF 393 renal | T-47D breast | SNB-19 CNS | SNB-75 CNS | PC-3 prostate | UACC-62 melanoma | K-562 leukemia | TK-10 renal | CAKI-1 renal | NCI-H522 lung | NCI-H23 lung | SK-OV-3 ovarian | A498 renal | HT29 colon | UO-31 renal | UACC-257 melanoma | NCI-H460 lung | ACHN renal | OVCAR-5 ovarian | HCT-116 colon | SN12C renal | SR leukemia | SW-620 colon | MALME-3M melanoma | KM12 colon | SK-MEL-28 melanoma | A549 NSCLC | HCT-15 colon | SK-MEL-2 melanoma | MDA-MB-231 breast | DU-145 prostate | HOP-62 NSCLC | MCF7 breast | IGROV1 ovarian | SF-539 CNS | SK-MEL-5 melanoma | OVCAR-3 ovarian | SF-295 CNS
